US5840697A, “Peptide inhibitors of calmodulin” (Torrey Pines Institute for Molecular Studies, priority 1996, dated 1998)
Square brackets hold non-standard residues; d marks the D form. Peptide text beside a SMILES is read from it.

What follows are compounds tested against calmodulin (Homo sapiens, UniProt P0DP23) (assay: calcium-dependent phosphodiesterase assay (calmodulin activity)). Conditions: 50 μM peptide; PDE without calmodulin = 100%, calmodulin without peptide = 0%.
Type: biochemical
Experimental: In the calcium dependent phosphodiesterase assay, calmodulin can be assayed by its ability to stimulate phosphodiesterase activity as determined by a two-step assay procedure illustrated by reactions (1) and (2) below. [drawing 1]
During the first step of the assay cyclic adenosine 3'5'-monophosphate (cAMP) is incubated with calcium-activated phosphodiesterase (Cal-PDE), which hydrolyses the 3'bond producing adenosine 5'-monophosphate (5'-AMP). During the second step, 5'-AMP is quantitatively converted into adenosine and inorganic phosphate (Pi) through the action of a 5-nucleotidase. The reaction is followed by the measurement of the Pi formed by reading the absorbance at 660 nm after reacting with ammonium molybdate. The amount of Pi formed is directly related to the phosphodiesterase activity which depends on the level of activation by calmodulin.
To sample assay tubes were added the following components: assay buffer, 25 ul; CaCl2, 5 ul; 5'-nucleotidase, 7.5 ul (stock solution is 10 units/ml); calmodulin 5 units; calmodulin inhibitor peptides to obtain the desired final concentration of 50 μM. The volume was then made up to 200 ul with water. Control blanks were prepared replacing the peptides with water. The added components were thoroughly mixed and the tubes incubated at 30° C. for 10 min. […] The samples were centrifuged to remove the protein precipitate and the 50 ul of the supernatant was withdrawn for phosphate measurement. […] The absorbance of the solution were read at 660 nm using water as a blank, identified as control "Calmo."
The two controls used in the assay, one without and one with calmodulin, as indicated in FIG. 1 and Table I were as follows,: (1) PDE:
These three controls were used in the calcium-dependent phosphodiesterase assay for reproducibility of the assay.
In addition to the calcium-dependent phosphodiesterase assay data, IC50 values were determined for many of the peptides. The assay carried out for the determination in the IC50 values differed from the above screening assay by the concentration of the peptides being tested.
(3) TFP: trifluoperazine; and (4) Calmidasolium: (1-[bis-(4-chlorophenyl)methyl]-3[-2-(2,4-dichlorophenyl)-2[(2,4-dichlorophenyl)methoxy]-ethyl]-1H-imidazolium chloride. The IC50 values were calculated using sigmoidal curve software (Graphpad, ISI; San Diego, Calif.) using the % inhibition at different mixture concentrations (see protocol for determination of % inhibition).
The (L)-amino acid counterpart for five (5) of the all (D)-amino acid peptides identified from the PS-SCL were synthesized in order to study the stereoselectivity of the inhibition.
In the case of `CC[C@@H](C)[C@@H](NC(=O)[C@@H](Cc1c[nH]c2ccccc12)NC(=O)[C@@H](CC(C)C)NC(C)=O)C(=O)N[C@H](Cc1c[nH]cn1)C(=O)N[C@H](Cc1c[nH]cn1)C(=O)N[C@H](CCCNC(=N)N)C(N)=O` [Ac-(D)Leu-(D)Trp-(D)Ile-(D)His-(D)His-(D)Arg-NH2] (Ac-[dL][dW][dI][dH][dH][dR]-NH2), the inhibition at 50 µM is reported as 79%.

Same assay, conditions: Table I; assayed at 75, 50 and 12.5 μM, average of repeated assays; read-out: Average IC50
`CC(=O)N[C@H](CC(C)C)C(=O)N[C@H](CCC(N)=O)C(=O)N[C@H](CCCNC(=N)N)C(=O)N[C@H](Cc1c[nH]cn1)C(=O)N[C@H](Cc1c[nH]cn1)C(=O)N[C@H](CCCNC(=N)N)C(N)=O` [Ac-(D)Leu-(D)Gln-(D)Arg-(D)His-(D)His-(D)Arg-NH2] (Ac-[dL][dQ][dR][dH][dH][dR]-NH2) gave an IC50 of 20 µM. For `CC(=O)N[C@H](CC(C)C)C(=O)N[C@H](CCC(N)=O)C(=O)N[C@H](CCCNC(=N)N)C(=O)N[C@H](Cc1c[nH]cn1)C(=O)N[C@H](Cc1c[nH]cn1)C(=O)N[C@H](Cc1c[nH]c2ccccc12)C(N)=O` [Ac-(D)Leu-(D)Gln-(D)Arg-(D)His-(D)His-(D)Trp-NH2] (Ac-[dL][dQ][dR][dH][dH][dW]-NH2), the IC50 was 25 µM. For `CC(=O)N[C@H](CC(C)C)C(=O)N[C@H](CCC(N)=O)C(=O)N[C@H](CCCNC(=N)N)C(=O)N[C@H](Cc1c[nH]cn1)C(=O)N[C@H](CC(C)C)C(=O)N[C@H](CCCNC(=N)N)C(N)=O` [Ac-(D)Leu-(D)Gln-(D)Arg-(D)His-(D)Leu-(D)Arg-NH2] (Ac-[dL][dQ][dR][dH][dL][dR]-NH2), the IC50 was 25 µM. Compound `CC(=O)N[C@H](CC(C)C)C(=O)N[C@H](CCC(N)=O)C(=O)N[C@H](CCCNC(=N)N)C(=O)N[C@H](Cc1c[nH]cn1)C(=O)N[C@H](CC(C)C)C(=O)N[C@H](Cc1c[nH]c2ccccc12)C(N)=O` [Ac-(D)Leu-(D)Gln-(D)Arg-(D)His-(D)Leu-(D)Trp-NH2] (Ac-[dL][dQ][dR][dH][dL][dW]-NH2) has an IC50 of 20 µM. For `CC[C@@H](C)[C@@H](NC(=O)[C@@H](CCCNC(=N)N)NC(=O)[C@@H](CCC(N)=O)NC(=O)[C@@H](CC(C)C)NC(C)=O)C(=O)N[C@H](Cc1c[nH]cn1)C(=O)N[C@H](CCCNC(=N)N)C(N)=O` [Ac-(D)Leu-(D)Gln-(D)Arg-(D)Ile-(D)His-(D)Arg-NH2] (Ac-[dL][dQ][dR][dI][dH][dR]-NH2), the IC50 was 26 µM. Work on `CC[C@@H](C)[C@@H](NC(=O)[C@@H](CCCNC(=N)N)NC(=O)[C@@H](CCC(N)=O)NC(=O)[C@@H](CC(C)C)NC(C)=O)C(=O)N[C@H](Cc1c[nH]cn1)C(=O)N[C@H](Cc1c[nH]c2ccccc12)C(N)=O` [Ac-(D)Leu-(D)Gln-(D)Arg-(D)Ile-(D)His-(D)Trp-NH2] (Ac-[dL][dQ][dR][dI][dH][dW]-NH2) yielded an IC50 of 19 µM. `CC[C@@H](C)[C@@H](NC(=O)[C@@H](CCCNC(=N)N)NC(=O)[C@@H](CCC(N)=O)NC(=O)[C@@H](CC(C)C)NC(C)=O)C(=O)N[C@H](CC(C)C)C(=O)N[C@H](CCCNC(=N)N)C(N)=O` [Ac-(D)Leu-(D)Gln-(D)Arg-(D)Ile-(D)Leu-(D)Arg-NH2] (Ac-[dL][dQ][dR][dI][dL][dR]-NH2) was tested, and the IC50 was 35 µM. In the case of `CC[C@@H](C)[C@@H](NC(=O)[C@@H](CCCNC(=N)N)NC(=O)[C@@H](CCC(N)=O)NC(=O)[C@@H](CC(C)C)NC(C)=O)C(=O)N[C@H](CC(C)C)C(=O)N[C@H](Cc1c[nH]c2ccccc12)C(N)=O` [Ac-(D)Leu-(D)Gln-(D)Arg-(D)Ile-(D)Leu-(D)Trp-NH2] (Ac-[dL][dQ][dR][dI][dL][dW]-NH2), the IC50 is reported as 24 µM. Compound `CC[C@@H](C)[C@@H](NC(=O)[C@@H](CCC(N)=O)NC(=O)[C@@H](CC(C)C)NC(C)=O)C(=O)N[C@H](Cc1c[nH]cn1)C(=O)N[C@H](Cc1c[nH]cn1)C(=O)N[C@H](CCCNC(=N)N)C(N)=O` [Ac-(D)Leu-(D)Gln-(D)Ile-(D)His-(D)His-(D)Arg-NH2] (Ac-[dL][dQ][dI][dH][dH][dR]-NH2) has an IC50 of 20 µM. With `CC[C@@H](C)[C@@H](NC(=O)[C@@H](CCC(N)=O)NC(=O)[C@@H](CC(C)C)NC(C)=O)C(=O)N[C@H](Cc1c[nH]cn1)C(=O)N[C@H](Cc1c[nH]cn1)C(=O)N[C@H](Cc1c[nH]c2ccccc12)C(N)=O` [Ac-(D)Leu-(D)Gln-(D)Ile-(D)His-(D)His-(D)Trp-NH2] (Ac-[dL][dQ][dI][dH][dH][dW]-NH2) the IC50 was 27 µM. `CC[C@@H](C)[C@@H](NC(=O)[C@@H](CCC(N)=O)NC(=O)[C@@H](CC(C)C)NC(C)=O)C(=O)N[C@H](Cc1c[nH]cn1)C(=O)N[C@H](CC(C)C)C(=O)N[C@H](Cc1c[nH]c2ccccc12)C(N)=O` [Ac-(D)Leu-(D)Gln-(D)Ile-(D)His-(D)Leu-(D)Trp-NH2] (Ac-[dL][dQ][dI][dH][dL][dW]-NH2) gave an IC50 of 30 µM. In the case of `CC[C@@H](C)[C@@H](NC(=O)[C@@H](CCC(N)=O)NC(=O)[C@@H](CC(C)C)NC(C)=O)C(=O)N[C@@H](C(=O)N[C@H](Cc1c[nH]cn1)C(=O)N[C@H](CCCNC(=N)N)C(N)=O)[C@H](C)CC` [Ac-(D)Leu-(D)Gln-(D)Ile-(D)Ile-(D)His-(D)Arg-NH2] (Ac-[dL][dQ][dI][dI][dH][dR]-NH2), the IC50 is reported as 35 µM. Work on `CC[C@@H](C)[C@@H](NC(=O)[C@@H](CCC(N)=O)NC(=O)[C@@H](CC(C)C)NC(C)=O)C(=O)N[C@@H](C(=O)N[C@H](Cc1c[nH]cn1)C(=O)N[C@H](Cc1c[nH]c2ccccc12)C(N)=O)[C@H](C)CC` [Ac-(D)Leu-(D)Gln-(D)Ile-(D)Ile-(D)His-(D)Trp-NH2] (Ac-[dL][dQ][dI][dI][dH][dW]-NH2) yielded an IC50 of 17 µM. Compound `CC[C@@H](C)[C@@H](NC(=O)[C@@H](CCC(N)=O)NC(=O)[C@@H](CC(C)C)NC(C)=O)C(=O)N[C@@H](C(=O)N[C@H](CC(C)C)C(=O)N[C@H](CCCNC(=N)N)C(N)=O)[C@H](C)CC` [Ac-(D)Leu-(D)Gln-(D)Ile-(D)Ile-(D)Leu-(D)Arg-NH2] (Ac-[dL][dQ][dI][dI][dL][dR]-NH2) has an IC50 of 20 µM. In the case of `CC(=O)N[C@H](CC(C)C)C(=O)N[C@H](Cc1c[nH]c2ccccc12)C(=O)N[C@H](CCCNC(=N)N)C(=O)N[C@H](Cc1c[nH]cn1)C(=O)N[C@H](Cc1c[nH]cn1)C(=O)N[C@H](CCCNC(=N)N)C(N)=O` [Ac-(D)Leu-(D)Trp-(D)Arg-(D)His-(D)His-(D)Arg-NH2] (Ac-[dL][dW][dR][dH][dH][dR]-NH2), the IC50 is reported as 8.1 µM. Compound `CC(=O)N[C@H](CC(C)C)C(=O)N[C@H](Cc1c[nH]c2ccccc12)C(=O)N[C@H](CCCNC(=N)N)C(=O)N[C@H](Cc1c[nH]cn1)C(=O)N[C@H](CC(C)C)C(=O)N[C@H](CCCNC(=N)N)C(N)=O` [Ac-(D)Leu-(D)Trp-(D)Arg-(D)His-(D)Leu-(D)Arg-NH2] (Ac-[dL][dW][dR][dH][dL][dR]-NH2) has an IC50 of 16 µM. `CC[C@@H](C)[C@@H](NC(=O)[C@@H](CCCNC(=N)N)NC(=O)[C@@H](Cc1c[nH]c2ccccc12)NC(=O)[C@@H](CC(C)C)NC(C)=O)C(=O)N[C@H](Cc1c[nH]cn1)C(=O)N[C@H](CCCNC(=N)N)C(N)=O` [Ac-(D)Leu-(D)Trp-(D)Arg-(D)Ile-(D)His-(D)Arg-NH2] (Ac-[dL][dW][dR][dI][dH][dR]-NH2) showed an IC50 of 7.5 µM. `CC[C@@H](C)[C@@H](NC(=O)[C@@H](Cc1c[nH]c2ccccc12)NC(=O)[C@@H](CC(C)C)NC(C)=O)C(=O)N[C@H](Cc1c[nH]cn1)C(=O)N[C@H](Cc1c[nH]cn1)C(=O)N[C@H](CCCNC(=N)N)C(N)=O` [Ac-(D)Leu-(D)Trp-(D)Ile-(D)His-(D)His-(D)Arg-NH2] (Ac-[dL][dW][dI][dH][dH][dR]-NH2) was tested, and the IC50 was 20 µM. Work on `CC[C@@H](C)[C@@H](NC(=O)[C@@H](Cc1c[nH]c2ccccc12)NC(=O)[C@@H](CC(C)C)NC(C)=O)C(=O)N[C@H](Cc1c[nH]cn1)C(=O)N[C@H](CC(C)C)C(=O)N[C@H](CCCNC(=N)N)C(N)=O` [Ac-(D)Leu-(D)Trp-(D)Ile-(D)His-(D)Leu-(D)Arg-NH2] (Ac-[dL][dW][dI][dH][dL][dR]-NH2) yielded an IC50 of 7.8 µM. In the case of `CC[C@@H](C)[C@@H](NC(=O)[C@@H](Cc1c[nH]c2ccccc12)NC(=O)[C@@H](CC(C)C)NC(C)=O)C(=O)N[C@@H](C(=O)N[C@H](Cc1c[nH]cn1)C(=O)N[C@H](CCCNC(=N)N)C(N)=O)[C@H](C)CC` [Ac-(D)Leu-(D)Trp-(D)Ile-(D)Ile-(D)His-(D)Arg-NH2] (Ac-[dL][dW][dI][dI][dH][dR]-NH2), the IC50 is reported as 5.1 µM. Work on `CC[C@@H](C)[C@@H](NC(=O)[C@@H](Cc1c[nH]c2ccccc12)NC(=O)[C@@H](CC(C)C)NC(C)=O)C(=O)N[C@@H](C(=O)N[C@H](Cc1c[nH]cn1)C(=O)N[C@H](Cc1c[nH]c2ccccc12)C(N)=O)[C@H](C)CC` [Ac-(D)Leu-(D)Trp-(D)Ile-(D)Ile-(D)His-(D)Trp-NH2] (Ac-[dL][dW][dI][dI][dH][dW]-NH2) yielded an IC50 of 8.6 µM. Compound `CC[C@@H](C)[C@@H](NC(=O)[C@@H](Cc1c[nH]c2ccccc12)NC(=O)[C@@H](CC(C)C)NC(C)=O)C(=O)N[C@@H](C(=O)N[C@H](CC(C)C)C(=O)N[C@H](CCCNC(=N)N)C(N)=O)[C@H](C)CC` [Ac-(D)Leu-(D)Trp-(D)Ile-(D)Ile-(D)Leu-(D)Arg-NH2] (Ac-[dL][dW][dI][dI][dL][dR]-NH2) has an IC50 of 7.2 µM.
